Assay results reported in patent US7879857B2, “6-substituted 2-quinolinones and 2-quinoxalinones as poly (adp-ribose) polymerase inhibitors” (Janssen Pharmaceutica NV, priority 2003, dated 2011).

Key:
[1] = rabbits, cited from earlier work
[2] = rats with hapten-induced colitis; cited from earlier work
PARP-1 enzyme [3] = target: T1, PARP-1 enzyme (Homo sapiens, UniProt P09874); assay: In vitro Scintillation Proximity Assay (SPA) for PARP-1 inhibitory activity; type: biochemical; details: [3H]-NAD+ as ADP-ribosyl donor, biotinylated histones, nicked DNA; read-out: In vitro SPA pIC50 (converted)
T1 construct: made in house
Experimental: Pharmacological Example In Vitro Scintillation Proximity Assay (SPA) for PARP-1 Inhibitory Activity
Compounds of the present invention were tested in an in vitro assay based on SPA technology (proprietary to Amersham Phannacia Biotech).
In principle, the assay relies upon the well established SPA technology for the detection of poly(ADP-ribosyl)ation of biotinylated target proteins, i.e histones. This ribosylation is induced using nicked DNA activated PARP-1 enzyme and [^3H]-nicotinamide adenine dinucleotide ([^3H]-NAD^+) as ADP-ribosyl donor.
As inducer of PARP-1 enzyme activity, nicked DNA was prepared. For this, 25 mg of DNA (supplier: Sigma) was dissolved in 25 ml DNAse buffer (10 mM Tris-HCI, pH 7.4; 0.5 mg/ml Bovine Serum Albumine (BSA); 5 MM MgCl2.6H2O and 1 mM KCl) to which 50 μl DNAse solution (1 mg/ml in 0.15 M NaCl) was added. After an incubation of 90 min. at 37° C., the reaction was terminated by adding 1.45 g NaCl, followed by a further incubation at 58° C. for 15 min. The reaction mixture was cooled on ice and dialysed at 4° C. for respectively 1.5 and 2 hours against 1.51 of 0.2 M KCl, and twice against 1.51 of 0.01 M KCl for 1.5 and 2 h respectively. The mixture was aliquoted and stored at −20° C. Histones (1 mg/ml, type II-A, supplier: Sigma) were biotinylated using the biotinylation kit of Amersham and stored aliquoted at −20° C. A stock solution of 100 mg/ml SPA poly(vinyl toluene) (PVT) beads (supplier: Amersham) was made in PBS. A stock solution of [^3H]-NAD^+ was made by adding 120 μl of [^3H]-NAD^+ (0.1 mCi/ml, supplier: NEN) to 6 ml incubation buffer (50 mM Tris/HCl, pH 8; 0.2 mM DTT; 4 mM MgCl2). A solution of 4 mM NAD^+ (supplier: Roche) was made in incubation buffer (from a 100 mM stock solution in water stored at −20° C.). The PARP-1 enzyme was produced using art known techniques, i.e. cloning and expression of the protein starting from human liver cDNA. Information concerning the used protein sequence of the PARP-1 enzyme including literature references can be found in the Swiss-Prot database under primary accession number P09874. Biotinylated histones and PVT-SPA beads were mixed and pre-incubated for 30 min. at room temperature. PARP-1 enzyme (concentration was lot dependent) was mixed with the nicked DNA and the mixture was pre-incubated for 30 min. at 4° C. Equal parts of this histones/PVT-SPA beads solution and PARP-1 enzyme/DNA solution were mixed and 75 μl of this mixture together with 1 μl of compound in DMSO and 25 μl of [^3H]-NAD^+ was added per well into a 96-well microtiterplate. The final concentrations in the incubation mixture were 2 μg/ml for the biotinylated histones, 2 mg/ml for the PVT-SPA beads, 2 μg/ml for the nicked DNA and between 5-10 μg/ml for the PARP-1 enzyme. After incubation of the mixture for 15 min. at room temperature, the reaction was terminated by adding 100 μl of 4 mM NAD^+ in incubation buffer (final concentration 2 mM) and plates were mixed.
The beads were allowed to sediment for at least 15 min. and plates transferred to a TopCountNXTT™ (Packard) for scintillation counting, values were expressed as counts per minute (cpm). For each experiment, controls (containing PARP-1 enzyme and DMSO without compound), a blank incubation (containing DMSO but no PARP-1 enzyme or compound) and samples (containing PARP-1 enzyme and compound dissolved in DMSO) were run in parallel. All compounds tested were dissolved and eventually further diluted in DMSO. […] The control sample represented maximal PARP-1 enzyme activity. For each sample, the amount of cpm was expressed as a percentage of the mean cpm value of the controls. When appropriate, IC50-values (concentration of the drug, needed to reduce the PARP-1 enzyme activity to 50% of the control) were computed using linear interpolation between the experimental points just above and below the 50% level. Herein the effects of test compounds are expressed as pIC50(the negative log value of the IC50-value). […]

PARP-1 enzyme [4] = target: T1, PARP-1 enzyme; assay: In vitro filtration assay for PARP-1 inhibitory activity; type: biochemical; details: [32P]-NAD as ADP-ribosyl donor, histones, nicked DNA; read-out: In vitro filtration assay pIC50 (converted)
Experimental: In Vitro Filtration Assay for PARP-1 Inhibitory Activity
Compounds of the present invention were tested in an in vitro filtration assay assessing PARP-1 activity (triggered in the presence of nicked DNA) by means of its histone poly (ADP-ribosyl)ation activity using [^32P]-NAD as ADP-ribosyl donor. The radioactive ribosylated histones were precipitated by trichIoroacetic acid (TCA) in 96-well filterplates and the incorporated [^32P] measured using a scintillation counter
A mixture of histones (stock solution: 5 mg/ml in H2O), NAD^+ (stock solution: 100 mM in H2O), and [^32P]-NAD^+ in incubation buffer (50 mM Tris/HCl, pH 8; 0.2 mM DTT; 4 mM MgCl2) was made. A mixture of the PARP-1 enzyme (5-10 μg/ml) and nicked DNA was also made. The nicked DNA was prepared as described in the in vitro SPA for PARP-1 inhibitory activity. Seventy-five μl of the PARP-1 enzyme/DNA mixture together with 1 μl of compound in DMSO and 25 μl of histones-NAD^+/[^32P]-NAD^+ mixture was added per well of a 96-well filterplate (0.45 μm, supplier Millipore). The final concentrations in the incubation mixture were 2 μg/ml for the histones, 0.1 mM for the NAD^+, […] (0.5 μC) for the [^32P]-NAD^+ and 2 μg/ml for the nicked DNA. Plates were incubated for 15 min. at room temperature and the reaction was terminated by the addition of 10 μl ice cold 100% TCA followed by the addition of 10 μl ice-cold BSA solution (1% in H2O). The protein fraction was allowed to precipitate for 10 min. at 4° C. and plates were vacuum filtered. The plates were subsequently washed with, for each well, 1 ml of 10% ice cold TCA, 1 ml of 5% ice cold TCA and 1 ml of 5% TCA at room temperature. Finally 100 μl of scintillation solution (Microscint 40, Packard) was added to each well and the plates were transferred to a TopCountNXT™ (supplier: Packard) for scintillation counting and values were expressed as counts per minute (cpm). For each experiment, controls (containing PARP-1 enzyme and DMSO without compound), a blank incubation (containing DMSO but no PARP-1 enzyme or compound) and samples (containing PARP-1 enzyme and compound dissolved in DMSO) were run in parallel. All compounds tested were dissolved and eventually further diluted in DMSO. […] The control sample represented maximal PARP-1 enzyme activity. For each sample, the amount of cpm was expressed as a percentage of the mean cpm value of the controls. When appropriate, IC50-values (concentration of the drug, needed to reduce the PARP-1 enzyme activity to 50% of the control) were computed using linear interpolation between the experimental points just above and below the 50% level. Herein the effects of test compounds are expressed as pIC50 (the negative log value of the IC50-value). As a reference compound, 4-amino-1,8-naphthalimide was included to validate the filtration assay.

T1 sequence (P09874 whole entry): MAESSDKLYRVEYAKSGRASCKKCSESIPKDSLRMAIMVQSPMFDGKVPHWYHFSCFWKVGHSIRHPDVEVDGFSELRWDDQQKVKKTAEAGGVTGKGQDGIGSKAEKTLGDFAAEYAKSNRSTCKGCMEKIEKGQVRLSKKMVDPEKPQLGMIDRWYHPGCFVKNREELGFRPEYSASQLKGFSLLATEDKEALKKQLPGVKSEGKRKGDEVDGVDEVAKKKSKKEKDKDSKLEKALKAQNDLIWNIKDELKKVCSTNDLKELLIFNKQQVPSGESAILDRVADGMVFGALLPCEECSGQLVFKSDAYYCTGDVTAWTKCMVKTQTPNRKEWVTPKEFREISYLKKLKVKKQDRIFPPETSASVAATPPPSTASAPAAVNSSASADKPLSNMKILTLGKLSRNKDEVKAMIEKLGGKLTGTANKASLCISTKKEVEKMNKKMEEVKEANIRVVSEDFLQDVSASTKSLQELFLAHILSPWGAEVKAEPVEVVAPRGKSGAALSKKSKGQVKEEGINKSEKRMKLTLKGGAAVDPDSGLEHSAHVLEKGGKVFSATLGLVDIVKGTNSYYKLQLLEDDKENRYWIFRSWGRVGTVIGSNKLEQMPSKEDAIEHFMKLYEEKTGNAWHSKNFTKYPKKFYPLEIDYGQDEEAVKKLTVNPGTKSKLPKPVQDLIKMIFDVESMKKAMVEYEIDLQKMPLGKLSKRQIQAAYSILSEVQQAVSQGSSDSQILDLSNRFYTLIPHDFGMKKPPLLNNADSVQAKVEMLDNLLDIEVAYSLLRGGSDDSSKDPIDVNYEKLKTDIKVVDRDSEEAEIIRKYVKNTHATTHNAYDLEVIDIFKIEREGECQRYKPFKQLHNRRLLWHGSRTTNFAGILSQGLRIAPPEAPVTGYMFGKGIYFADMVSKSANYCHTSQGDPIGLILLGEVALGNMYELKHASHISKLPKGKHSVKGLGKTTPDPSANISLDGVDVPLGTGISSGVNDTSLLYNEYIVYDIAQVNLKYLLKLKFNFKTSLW

IC50 (PARP-1 enzyme [3]) | IC50 (PARP-1 enzyme [4]) | Compound | also measured
0.221 µM |  | CCc1nc2cc(C(NC=O)C(C)C)ccc2[nH]c1=O (stereo not shown) [Compound 1] | melting point: 204 °C
0.975 µM |  | CCOC(=O)Cc1ccc2[nH]c(=O)c(CC)nc2c1 [Compound 8] | 
0.743 µM |  | CCc1nc2cc(C(=O)C(C)C)ccc2[nH]c1=O [Compound 9] | 
0.74 µM |  | CCc1nc2cc(C(NCCN3CCC(C(=O)c4ccc(F)cc4)CC3)C(C)C)ccc2[nH]c1=O (stereo not shown) [Compound 10] | 
0.327 µM |  | CCc1cc2cc(CCNCCCN3CCCCC3)ccc2[nH]c1=O [Compound 11] | 
0.368 µM |  | CCc1nc2cc(C(NCCCN3CCCCC3)C(C)C)ccc2[nH]c1=O (stereo not shown) [Compound 13] | 
0.499 µM |  | CCc1nc2cc(C(NCCCN(C)Cc3ccccc3)C(C)C)ccc2[nH]c1=O (stereo not shown) [Compound 14] | 
1.26 µM | 3.62 µM | Cc1cc2cc(C(NCCCN3CCCCC3)C(C)C)ccc2[nH]c1=O (stereo not shown) [Compound 15] | 
0.746 µM |  | CCc1nc2cc(C(O)C(C)C)ccc2[nH]c1=O (stereo not shown) [Compound 19] | 
0.438 µM | 2.28 µM | CCc1nc2cc(C(C(C)C)n3cncn3)ccc2[nH]c1=O (stereo not shown) [Compound 20, 3-ethyl-6-[2-methyl-1-(1H-1,2,4-triazol-1-yl)propyl]-2(1H)-quinoxalinone] | 
0.227 µM | 1.1 µM | CCc1nc2cc(C(C(C)C)n3ccnc3)ccc2[nH]c1=O (stereo not shown) [Compound 21, 3-ethyl-6-[1-(1H-imidazol-1-yl)-2-methylpropyl]-2(1H)-quinoxalinone] | 
1 µM | 4.63 µM | CCCCC(c1ccc2[nH]c(=O)c(C)nc2c1)n1ccnc1 (stereo not shown) [Compound 25, 6-[1-(1H-imidazol-1-yl)pentyl]-3-methyl-2(1H)-quinoxalinone] | 

More lines, now with the values behind:

Compound | IC50 (PARP-1 enzyme [3]) | IC50 (PARP-1 enzyme [4]) | also measured
Oc1cccc2c(O)nccc12 [1,5-dihydroxyisoquinoline] |  |  | reduction in infarct size ([1]; single injection 1 mg/kg): 38-48%
NC(=O)c1cccc(N)c1 [3-amino-benzamide] |  |  | effect on inflammatory response, morphology and energetic status of the distal colon [2]: reduced the inflammatory response and restored the morphology and the energetic status of the distal colon; reduction in infarct size in the heart ([1]; single injection 10 mg/kg, one minute before occlusion or one minute before reperfusion): 32-42%
Cc1cc2cc(C(C(C)C)n3ccnc3)ccc2[nH]c1=O (stereo not shown) [Compound 2] | 0.522 µM | 5.35 µM | melting point: 211.4 °C
CCc1cc2cc(C(=O)CN(C)C)ccc2[nH]c1=O [Compound 3] | 0.259 µM | 2.59 µM | melting point: 180 °C
Cc1cc2cc(C(CCN(C)C)c3ccco3)ccc2[nH]c1=O (stereo not shown) [Compound 4] | 1.04 µM | 7.57 µM | 
CCc1cc2cc(C(O)C(CC)CC)ccc2[nH]c1=O (stereo not shown) [Compound 5] | 0.156 µM | 0.638 µM | 
Cc1cc2cc(C(CCc3ccccc3)NC=O)ccc2[nH]c1=O (stereo not shown) [Compound 6] | 0.769 µM | 10 µM | melting point: 221.3 °C
CCc1cc2cc(C(O)CN(C)C)ccc2[nH]c1=O (stereo not shown) [Compound 7] | 0.212 µM | 0.773 µM | melting point: 131 °C
CCc1cc2cc(CCNCCCN(C)Cc3ccccc3)ccc2[nH]c1=O [Compound 12] | 0.687 µM |  | 
Cc1cc2cc(C(O)(CCN(C)C)c3ccccn3)ccc2[nH]c1=O (stereo not shown) [Compound 16] | 0.47 µM | 2.16 µM | 
CCc1cc2cc(C(O)C3CC=CCC3)ccc2[nH]c1=O (stereo not shown) [Compound 17] | 0.198 µM | 1.47 µM | 
Cc1cc2cc(C(C)NC=O)ccc2[nH]c1=O (stereo not shown) [Compound 18] | 1.02 µM | 6.37 µM | 
CC(C)C(c1ccc2[nH]c(=O)c(-c3cccs3)nc2c1)n1cncn1 (stereo not shown) [Compound 22, 6-[2-methyl-1-(1H-1,2,4-triazol-1-yl)propyl]-3-(2-thienyl)-2(1H)-quinoxalinone] | 0.838 µM | 4.33 µM | 
CC(C)C(c1ccc2[nH]c(=O)c(-c3ccsc3)nc2c1)n1cncn1 (stereo not shown) [Compound 23, 6-[2-methyl-1-(1H-1,2,4-triazol-1-yl)propyl]-3-(thienyl)-2(1H)-quinoxalinone] | 1.43 µM | 7.13 µM | 
CC(C)C(c1ccc2[nH]c(=O)c(-c3ccsc3)nc2c1)n1ccnc1 (stereo not shown) [Compound 24, 6-[1-(1H-imidazol-1-yl)-2-methylpropyl]-3-(3-thienyl)-2(1H)-quinoxalinone] | 0.561 µM | 4.86 µM | 
